Legend:
Rho kinase 2 = Rho kinase 2 (Homo sapiens, UniProt O75116); test: In vitro Rho kinase inhibitory activity assay (ADP-Glo kit, Myelin Basic Protein substrate); type: biochemical; conditions: 10 μM ATP, 25° C., read-out: ROCK2 inhibitory activity (Ki, range of activity)
How it was run: (§1)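 First, compound was incubated with either Rho kinase isoform for 30 mins at 25 °C; next, ATP was added to 10 μM final with 2.5 μM Myelin Basic Protein substrate; after 1 hour, ADP formed was detected by ADP-Glo luminescence. Dose-response data yielded IC50, converted to Ki using Cheng-Prusoff.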

Rho kinase 1 = Rho kinase 1 (Homo sapiens, UniProt Q13464); test: as above; type: biochemical; conditions: 10 μM ATP, 25° C., read-out: ROCK1 inhibitory activity (Ki, range of activity)
How it was run: as §1

Rho kinase 1, sequence (Q13464 whole entry): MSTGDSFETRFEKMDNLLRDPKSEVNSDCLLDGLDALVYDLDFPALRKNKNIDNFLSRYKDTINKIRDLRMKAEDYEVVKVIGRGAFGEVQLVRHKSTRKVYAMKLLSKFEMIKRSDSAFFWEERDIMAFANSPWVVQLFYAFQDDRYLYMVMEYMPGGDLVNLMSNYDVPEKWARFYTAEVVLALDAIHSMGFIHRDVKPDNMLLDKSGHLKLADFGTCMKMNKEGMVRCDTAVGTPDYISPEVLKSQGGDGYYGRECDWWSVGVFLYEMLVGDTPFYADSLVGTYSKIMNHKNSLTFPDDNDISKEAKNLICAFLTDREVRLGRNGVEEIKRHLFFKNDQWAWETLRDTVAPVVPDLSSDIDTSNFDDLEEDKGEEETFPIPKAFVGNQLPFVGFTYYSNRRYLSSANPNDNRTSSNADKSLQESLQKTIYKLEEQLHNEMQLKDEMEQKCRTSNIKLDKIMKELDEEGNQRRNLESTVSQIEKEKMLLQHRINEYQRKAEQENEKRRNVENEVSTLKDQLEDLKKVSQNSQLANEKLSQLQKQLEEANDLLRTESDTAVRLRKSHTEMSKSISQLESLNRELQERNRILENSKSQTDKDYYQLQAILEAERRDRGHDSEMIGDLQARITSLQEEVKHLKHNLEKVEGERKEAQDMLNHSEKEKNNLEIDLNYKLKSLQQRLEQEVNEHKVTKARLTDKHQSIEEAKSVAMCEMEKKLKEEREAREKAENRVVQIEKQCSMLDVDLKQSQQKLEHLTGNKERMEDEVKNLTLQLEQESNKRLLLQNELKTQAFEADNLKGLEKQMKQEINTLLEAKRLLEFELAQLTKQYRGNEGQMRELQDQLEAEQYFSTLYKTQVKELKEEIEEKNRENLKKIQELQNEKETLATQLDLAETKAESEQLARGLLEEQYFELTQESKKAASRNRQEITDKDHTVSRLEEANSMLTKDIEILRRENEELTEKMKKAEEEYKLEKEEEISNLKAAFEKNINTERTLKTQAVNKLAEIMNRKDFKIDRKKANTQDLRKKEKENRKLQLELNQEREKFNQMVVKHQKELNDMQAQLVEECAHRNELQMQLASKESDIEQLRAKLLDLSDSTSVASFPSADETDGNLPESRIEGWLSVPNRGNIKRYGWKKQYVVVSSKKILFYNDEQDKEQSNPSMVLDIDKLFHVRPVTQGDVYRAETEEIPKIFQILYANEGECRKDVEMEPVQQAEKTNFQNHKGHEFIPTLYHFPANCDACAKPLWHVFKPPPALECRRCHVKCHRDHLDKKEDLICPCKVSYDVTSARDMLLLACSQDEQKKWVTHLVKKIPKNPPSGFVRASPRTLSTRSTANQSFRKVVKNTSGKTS
Rho kinase 2, sequence (O75116 whole entry, canonical isoform): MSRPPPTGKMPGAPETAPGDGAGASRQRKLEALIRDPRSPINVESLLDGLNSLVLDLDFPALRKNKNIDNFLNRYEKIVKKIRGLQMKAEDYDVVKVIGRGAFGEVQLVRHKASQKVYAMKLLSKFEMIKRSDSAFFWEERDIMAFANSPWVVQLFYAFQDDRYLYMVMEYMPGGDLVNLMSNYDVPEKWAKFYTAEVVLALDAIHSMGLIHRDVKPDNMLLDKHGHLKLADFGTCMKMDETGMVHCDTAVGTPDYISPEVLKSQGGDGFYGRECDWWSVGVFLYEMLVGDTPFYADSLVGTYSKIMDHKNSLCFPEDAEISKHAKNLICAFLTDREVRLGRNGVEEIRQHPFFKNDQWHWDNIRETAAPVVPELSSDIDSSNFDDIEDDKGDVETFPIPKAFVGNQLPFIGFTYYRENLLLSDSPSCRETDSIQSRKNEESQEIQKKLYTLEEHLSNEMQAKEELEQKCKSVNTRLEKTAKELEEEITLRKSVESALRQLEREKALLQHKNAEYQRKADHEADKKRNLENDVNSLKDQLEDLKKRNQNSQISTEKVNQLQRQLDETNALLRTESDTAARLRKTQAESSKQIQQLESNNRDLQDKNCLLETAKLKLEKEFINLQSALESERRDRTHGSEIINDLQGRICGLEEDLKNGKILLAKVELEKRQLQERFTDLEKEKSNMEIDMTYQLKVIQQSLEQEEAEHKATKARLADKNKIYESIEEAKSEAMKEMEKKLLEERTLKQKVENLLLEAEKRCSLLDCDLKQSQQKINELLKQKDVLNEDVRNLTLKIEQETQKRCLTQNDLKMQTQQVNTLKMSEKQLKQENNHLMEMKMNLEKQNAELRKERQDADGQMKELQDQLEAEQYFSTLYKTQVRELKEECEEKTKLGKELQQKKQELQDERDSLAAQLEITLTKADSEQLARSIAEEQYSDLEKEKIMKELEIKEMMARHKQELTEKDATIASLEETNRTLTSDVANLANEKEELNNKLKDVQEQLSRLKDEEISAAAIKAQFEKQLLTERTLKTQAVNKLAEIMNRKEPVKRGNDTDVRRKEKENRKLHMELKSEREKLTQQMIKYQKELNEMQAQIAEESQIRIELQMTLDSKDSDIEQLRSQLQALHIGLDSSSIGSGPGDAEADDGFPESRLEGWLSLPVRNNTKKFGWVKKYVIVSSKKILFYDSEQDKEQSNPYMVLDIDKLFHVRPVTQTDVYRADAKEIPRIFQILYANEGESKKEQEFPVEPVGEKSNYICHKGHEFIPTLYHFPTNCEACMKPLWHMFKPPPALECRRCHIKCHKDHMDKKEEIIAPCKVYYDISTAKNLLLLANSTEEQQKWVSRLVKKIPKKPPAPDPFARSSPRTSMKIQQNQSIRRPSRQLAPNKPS

Ki (Rho kinase 2) [nM]	Ki (Rho kinase 1) [nM]	Compound
< 50	< 50	CC1=C(C(=O)Nc2ccc3cnccc3c2)C(c2ccc(C(F)(F)F)c(F)c2)n2nc(NC(=O)CN3CCCC3)cc2N1 (centres unmarked) [Example 132, 7-(3-fluoro-4-(trifluoromethyl)phenyl)-N-(isoquinolin-6-yl)-5-methyl-2-(2-(pyrrolidin-1-yl)acetamido)-4,7-dihydropyrazolo[1,5-a]pyrimidine-6-carboxamide]
< 50	< 50	CC1=C(C(=O)Nc2ccc3cnccc3c2)C(c2ccc(C)c(F)c2)n2nc(NC(=O)CN3CCCC3)cc2N1 (centres unmarked) [Example 134, 7-(3-fluoro-4-methylphenyl)-N-(isoquinolin-6-yl)-5-methyl-2-(2-(pyrrolidin-1-yl)acetamido)-4,7-dihydropyrazolo[1,5-a]pyrimidine-6-carboxamide]

Second part, the molecule before the results:

Compound	Ki (Rho kinase 2) [nM]	Ki (Rho kinase 1) [nM]
CC1=C(C(=O)Nc2ccc3cnccc3c2)C(c2ccc(C(F)(F)F)c(F)c2)n2nc(N)cc2N1 (centres unmarked) [Example 130, 2-Amino-7-(3-fluoro-4-(trifluoromethyl)phenyl)-N-(isoquinolin-6-yl)-5-methyl-4,7-dihydropyrazolo[1,5-a]pyrimidine-6-carboxamide]	< 50	< 50
CC1=C(C(=O)Nc2ccc3cnccc3c2)C(c2ccc(C(F)(F)F)c(F)c2)n2nc(NC(=O)CCN3CCCCC3)cc2N1 (centres unmarked) [Example 131, 7-(3-Fluoro-4-(trifluoromethyl)phenyl)-N-(isoquinolin-6-yl)-5-methyl-2-(3-(piperidin-1-yl)propanamido)-4,7-dihydropyrazolo[1,5-a]pyrimidine-6-carboxamide]	< 50	< 50
CC1=C(C(=O)Nc2ccc3cnccc3c2)C(c2ccc(C(F)(F)F)c(F)c2)n2nc(NC(=O)COC3CCN(C)CC3)cc2N1 (centres unmarked) [Example 133, 7-(3-fluoro-4-(trifluoromethyl)phenyl)-N-(isoquinolin-6-yl)-5-methyl-2-(2-((1-methylpiperidin-4-yl)oxy)acetamido)-4,7-dihydropyrazolo[1,5-a]pyrimidine-6-carboxamide]	< 50	< 50
CC1=C(C(=O)Nc2ccc3cnccc3c2)C(c2ccc(C(F)(F)F)c(F)c2)n2nc(C3CCN(C(=O)CCN4CCCCC4)CC3)cc2N1 (centres unmarked) [Example 135, 7-(3-fluoro-4-(trifluoromethyl)phenyl)-N-(isoquinolin-6-yl)-5-methyl-2-(1-(3-(piperidin-1-yl)propanoyl)piperidin-4-yl)-4,7-dihydropyrazolo[1,5-a]pyrimidine-6-carboxamide]	< 50	< 50
CC1=C(C(=O)Nc2ccc3cnccc3c2)C(c2ccc(C(F)(F)F)c(F)c2)n2nc(N3CCN(C)CC3)cc2N1 (centres unmarked) [Example 136, 7-(3-Fluoro-4-(trifluoromethyl)phenyl)-N-(isoquinolin-6-yl)-5-methyl-2-(4-methylpiperazin-1-yl)-4,7-dihydropyrazolo[1,5-a]pyrimidine-6-carboxamide]	< 50	< 50
